Patent publication US20240415914A1, “Water Dispersible Cannabinoid Compositions” (priority 2021, published 2024)

Experiment: Stability of cannabinoid and Vitamin E components of Beverage 1 (AB White) stored at 8° C. and 21-25° C., LCMSMS over 570 days
Assay type: physicochemical
Conditions: for Stability in AB White, 8° C. (content by LCMSMS): beverage stored at 8° C.; for Stability in AB White, 21-25° C. (content by LCMSMS): beverage stored at 21-25° C.
Method: The LCMSMS was calibrated for 0-1000 ng/ml cannabinoids with the same resin material used in the preparation of the concentrates. At each time period, 100 ml of beverage was diluted with 10 ml of methanol and injected into the LCMSMS for analysis.

C=C(C)[C@@H]1CCC(C)=C[C@H]1c1c(O)cc(CCCCC)c(C(=O)O)c1O [CBDA, cannabidiolic acid]
1.61 µg/mL: Stability in AB White, 8° C. (content by LCMSMS) (day 510) | Stability in AB White, 8° C. (content by LCMSMS) (day 540) | Stability in AB White, 21-25° C. (content by LCMSMS) (day 570)
1.77 µg/mL: Stability in AB White, 21-25° C. (content by LCMSMS) (day 8)
1.76 µg/mL: Stability in AB White, 8° C. (content by LCMSMS) (day 2) | Stability in AB White, 8° C. (content by LCMSMS) (day 3) | Stability in AB White, 8° C. (content by LCMSMS) (day 10) | Stability in AB White, 8° C. (content by LCMSMS) (day 18) | Stability in AB White, 8° C. (content by LCMSMS) (day 23) | Stability in AB White, 8° C. (content by LCMSMS) (day 30) | Stability in AB White, 21-25° C. (content by LCMSMS) (day 1) | Stability in AB White, 21-25° C. (content by LCMSMS) (day 11) | Stability in AB White, 21-25° C. (content by LCMSMS) (day 29)
1.68 µg/mL: Stability in AB White, 8° C. (content by LCMSMS) (day 210) | Stability in AB White, 8° C. (content by LCMSMS) (day 450) | Stability in AB White, 21-25° C. (content by LCMSMS) (day 60)
1.63 µg/mL: Stability in AB White, 21-25° C. (content by LCMSMS) (day 480) | Stability in AB White, 21-25° C. (content by LCMSMS) (day 540)
1.75 µg/mL: Stability in AB White, 8° C. (content by LCMSMS) (day 0) | Stability in AB White, 8° C. (content by LCMSMS) (day 8) | Stability in AB White, 8° C. (content by LCMSMS) (day 25) | Stability in AB White, 8° C. (content by LCMSMS) (day 26) | Stability in AB White, 8° C. (content by LCMSMS) (day 29) | Stability in AB White, 8° C. (content by LCMSMS) (day 180) | Stability in AB White, 21-25° C. (content by LCMSMS) (day 0) | Stability in AB White, 21-25° C. (content by LCMSMS) (day 16) | Stability in AB White, 21-25° C. (content by LCMSMS) (day 18) | Stability in AB White, 21-25° C. (content by LCMSMS) (day 26)
1.72 µg/mL: Stability in AB White, 8° C. (content by LCMSMS) (day 1) | Stability in AB White, 8° C. (content by LCMSMS) (day 24) | Stability in AB White, 21-25° C. (content by LCMSMS) (day 17) | Stability in AB White, 21-25° C. (content by LCMSMS) (day 330)
1.74 µg/mL: Stability in AB White, 8° C. (content by LCMSMS) (day 15) | Stability in AB White, 8° C. (content by LCMSMS) (day 19) | Stability in AB White, 21-25° C. (content by LCMSMS) (day 9) | Stability in AB White, 21-25° C. (content by LCMSMS) (day 12)
1.69 µg/mL: Stability in AB White, 8° C. (content by LCMSMS) (day 300) | Stability in AB White, 21-25° C. (content by LCMSMS) (day 5) | Stability in AB White, 21-25° C. (content by LCMSMS) (day 15) | Stability in AB White, 21-25° C. (content by LCMSMS) (day 180) | Stability in AB White, 21-25° C. (content by LCMSMS) (day 360)
1.71 µg/mL: Stability in AB White, 8° C. (content by LCMSMS) (day 5) | Stability in AB White, 8° C. (content by LCMSMS) (day 12) | Stability in AB White, 8° C. (content by LCMSMS) (day 150) | Stability in AB White, 21-25° C. (content by LCMSMS) (day 3) | Stability in AB White, 21-25° C. (content by LCMSMS) (day 30) | Stability in AB White, 21-25° C. (content by LCMSMS) (day 270)
1.67 µg/mL: Stability in AB White, 8° C. (content by LCMSMS) (day 120) | Stability in AB White, 8° C. (content by LCMSMS) (day 420) | Stability in AB White, 21-25° C. (content by LCMSMS) (day 90) | Stability in AB White, 21-25° C. (content by LCMSMS) (day 390)
1.66 µg/mL: Stability in AB White, 8° C. (content by LCMSMS) (day 480) | Stability in AB White, 21-25° C. (content by LCMSMS) (day 120) | Stability in AB White, 21-25° C. (content by LCMSMS) (day 510)
1.60 µg/mL: Stability in AB White, 8° C. (content by LCMSMS) (day 570)
1.73 µg/mL: Stability in AB White, 8° C. (content by LCMSMS) (day 9) | Stability in AB White, 8° C. (content by LCMSMS) (day 16) | Stability in AB White, 8° C. (content by LCMSMS) (day 17) | Stability in AB White, 21-25° C. (content by LCMSMS) (day 10) | Stability in AB White, 21-25° C. (content by LCMSMS) (day 23) | Stability in AB White, 21-25° C. (content by LCMSMS) (day 25) | Stability in AB White, 21-25° C. (content by LCMSMS) (day 210) | Stability in AB White, 21-25° C. (content by LCMSMS) (day 240) | Stability in AB White, 21-25° C. (content by LCMSMS) (day 300)
1.70 µg/mL: Stability in AB White, 8° C. (content by LCMSMS) (day 11) | Stability in AB White, 8° C. (content by LCMSMS) (day 22) | Stability in AB White, 8° C. (content by LCMSMS) (day 60) | Stability in AB White, 8° C. (content by LCMSMS) (day 90) | Stability in AB White, 8° C. (content by LCMSMS) (day 240) | Stability in AB White, 8° C. (content by LCMSMS) (day 270) | Stability in AB White, 8° C. (content by LCMSMS) (day 330) | Stability in AB White, 8° C. (content by LCMSMS) (day 360) | Stability in AB White, 8° C. (content by LCMSMS) (day 390) | Stability in AB White, 21-25° C. (content by LCMSMS) (day 2) | Stability in AB White, 21-25° C. (content by LCMSMS) (day 19) | Stability in AB White, 21-25° C. (content by LCMSMS) (day 22) | Stability in AB White, 21-25° C. (content by LCMSMS) (day 24) | Stability in AB White, 21-25° C. (content by LCMSMS) (day 450)
1.64 µg/mL: Stability in AB White, 21-25° C. (content by LCMSMS) (day 150) | Stability in AB White, 21-25° C. (content by LCMSMS) (day 420)
